Test results taken from patent US20090042910A1, “QUINOLINE DERIVATIVES FOR TREATING CANCER” (priority 2006, published 2009).

Legend:
PDGFRβ = biological target: T1, PDGFRβ (Homo sapiens, UniProt P09619); test: In vitro phospho-Tyr751 PDGFRβ ELISA assay in MG63 osteosarcoma cells (Test b); type: cell-based; details: MG63 cells stimulated with PDGFBB, read-out: IC50 versus phospho-Tyr751 formation in PDGFRβ
T1 construct: endogenous in cells; host or cells: MG63 osteosarcoma cells (ATCC)
Experimental: This assay uses a conventional ELISA method to determine the ability of test compounds to inhibit phosphorylation of tyrosine in PDGFRβ.
An MG63 osteosarcoma cell line [American Type Culture Collection (ATCC) CCL 1427] was routinely maintained at 37° C. with 7.5% CO2 in Dulbecco's modified Eagle's growth medium (DMEM; Sigma-Aldrich; Catalogue No. D6546) containing 10% foetal calf serum (FCS; Sigma-Aldrich; Catalogue No. F7524) and 2 mM L-glutamine (Invitrogen Ltd., Paisley, UK; Catalogue No. 25030-024).
For the assay, the cells were detached from the culture flask using a trypsin/ethylenediaminetetraacetic acid (EDTA) mixture (Invitrogen Ltd.; Catalogue No. 15400-054) and resuspended in a test medium comprising DMEM without phenol red (Sigma-Aldrich; Catalogue No. D5921) containing 1% charcoal-stripped foetal calf serum (FCS) (Sigma-Aldrich; Catalogue No. F7524, stripped by incubation with dextran-coated activated charcoal at 55° C. for 30 minutes with continuous stirring followed by removal of the charcoal by centrifugation and filter sterilisation) and 2 mM L-glutamine (Invitrogen Ltd., Catalogue No. 25030-024) to give 6×10^4 cells per ml. […]

KDR (VEGFR2) = biological target: T2, KDR (VEGFR2) (Homo sapiens, UniProt P35968); test: In vitro phospho-KDR ELISA assay in HUVECs (Test c); type: cell-based; details: HUVECs stimulated with VEGF, read-out: IC50 versus phospho-tyrosine formation in KDR
T2 construct: phosphorylation of KDR expressed in human umbilical vein endothelial cells (HUVECs); host or cells: HUVECs (primary human umbilical vein endothelial cells)
Experimental: This assay uses a conventional ELISA method to determine the ability of test compounds to inhibit phosphorylation of tyrosine in KDR (VEGFR2).
Human umbilical vein endothelial cells (HUVECs; PromoCell) were routinely incubated at 37° C. with 7.5% CO2 in ‘growth medium’ comprising MCDB 131 (Gibco Catalogue No. 10372-019; 500 ml) containing L-glutamine (Sigma Catalogue No. G3126; 0.848 g), 1% Penicillin Streptomycin (Gibco Catalogue No. 15140-122) and Fetal Bovine Serum (PAA Laboratories Catalogue No. A15-043; 50 ml).
For the assay, the cells were detached from the culture flask using a trypsin/ethylenediaminetetraacetic acid (EDTA) mixture (Invitrogen Ltd.; Catalogue No. 15400-054) and resuspended in ‘test medium’ comprising MCDB 131 (500 ml) containing L-glutamine (0.848 g), 1% Penicillin Streptomycin and Fetal Bovine Serum (10 ml). Aliquots (1 ml) were seeded into each well of a 24 well tissue culture plate (Corning Life Sciences; Catalogue No. 3527) to give a density of approximately 3.5×10^4 cells per well. The cells were incubated overnight at 37° C. with 7.5% CO2 to allow adherence to the well surface. The following morning the assay medium was decanted and an aliquot (0.5 ml) of ‘serum free medium’ comprising MCDB 131 (500 ml) containing L-glutamine (0.848 g) and 1% Penicillin Streptomycin was added to each well. The plates were incubated at 37° C. for 2.5 hours. […]

T1 sequence (P09619 33-1106): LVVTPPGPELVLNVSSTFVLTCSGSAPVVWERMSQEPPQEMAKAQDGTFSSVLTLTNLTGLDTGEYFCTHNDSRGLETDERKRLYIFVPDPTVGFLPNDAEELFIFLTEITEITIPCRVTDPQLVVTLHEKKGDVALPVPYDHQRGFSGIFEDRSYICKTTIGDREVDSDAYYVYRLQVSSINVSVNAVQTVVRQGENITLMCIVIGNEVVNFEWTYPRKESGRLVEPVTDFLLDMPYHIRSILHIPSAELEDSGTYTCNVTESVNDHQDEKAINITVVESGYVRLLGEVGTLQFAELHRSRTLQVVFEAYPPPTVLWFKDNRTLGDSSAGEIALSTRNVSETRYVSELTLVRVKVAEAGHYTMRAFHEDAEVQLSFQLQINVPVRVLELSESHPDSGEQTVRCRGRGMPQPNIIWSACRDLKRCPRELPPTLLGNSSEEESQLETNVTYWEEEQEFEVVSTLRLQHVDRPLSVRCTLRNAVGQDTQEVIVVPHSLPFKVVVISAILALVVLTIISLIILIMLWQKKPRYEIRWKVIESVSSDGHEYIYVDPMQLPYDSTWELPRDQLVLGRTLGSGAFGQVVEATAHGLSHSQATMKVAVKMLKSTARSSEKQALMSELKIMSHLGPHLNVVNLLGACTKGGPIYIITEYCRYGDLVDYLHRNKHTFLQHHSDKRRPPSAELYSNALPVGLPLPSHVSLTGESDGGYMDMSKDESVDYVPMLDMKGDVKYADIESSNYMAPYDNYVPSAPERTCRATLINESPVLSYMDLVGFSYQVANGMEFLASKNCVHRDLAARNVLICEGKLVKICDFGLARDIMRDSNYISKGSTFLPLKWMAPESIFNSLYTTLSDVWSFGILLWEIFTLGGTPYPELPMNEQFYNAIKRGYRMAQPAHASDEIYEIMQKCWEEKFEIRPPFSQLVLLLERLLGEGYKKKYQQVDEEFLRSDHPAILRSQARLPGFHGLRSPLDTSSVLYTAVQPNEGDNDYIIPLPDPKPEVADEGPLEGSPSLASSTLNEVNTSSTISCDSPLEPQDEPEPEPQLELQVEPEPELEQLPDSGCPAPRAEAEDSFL
T2 sequence (P35968 20-1356): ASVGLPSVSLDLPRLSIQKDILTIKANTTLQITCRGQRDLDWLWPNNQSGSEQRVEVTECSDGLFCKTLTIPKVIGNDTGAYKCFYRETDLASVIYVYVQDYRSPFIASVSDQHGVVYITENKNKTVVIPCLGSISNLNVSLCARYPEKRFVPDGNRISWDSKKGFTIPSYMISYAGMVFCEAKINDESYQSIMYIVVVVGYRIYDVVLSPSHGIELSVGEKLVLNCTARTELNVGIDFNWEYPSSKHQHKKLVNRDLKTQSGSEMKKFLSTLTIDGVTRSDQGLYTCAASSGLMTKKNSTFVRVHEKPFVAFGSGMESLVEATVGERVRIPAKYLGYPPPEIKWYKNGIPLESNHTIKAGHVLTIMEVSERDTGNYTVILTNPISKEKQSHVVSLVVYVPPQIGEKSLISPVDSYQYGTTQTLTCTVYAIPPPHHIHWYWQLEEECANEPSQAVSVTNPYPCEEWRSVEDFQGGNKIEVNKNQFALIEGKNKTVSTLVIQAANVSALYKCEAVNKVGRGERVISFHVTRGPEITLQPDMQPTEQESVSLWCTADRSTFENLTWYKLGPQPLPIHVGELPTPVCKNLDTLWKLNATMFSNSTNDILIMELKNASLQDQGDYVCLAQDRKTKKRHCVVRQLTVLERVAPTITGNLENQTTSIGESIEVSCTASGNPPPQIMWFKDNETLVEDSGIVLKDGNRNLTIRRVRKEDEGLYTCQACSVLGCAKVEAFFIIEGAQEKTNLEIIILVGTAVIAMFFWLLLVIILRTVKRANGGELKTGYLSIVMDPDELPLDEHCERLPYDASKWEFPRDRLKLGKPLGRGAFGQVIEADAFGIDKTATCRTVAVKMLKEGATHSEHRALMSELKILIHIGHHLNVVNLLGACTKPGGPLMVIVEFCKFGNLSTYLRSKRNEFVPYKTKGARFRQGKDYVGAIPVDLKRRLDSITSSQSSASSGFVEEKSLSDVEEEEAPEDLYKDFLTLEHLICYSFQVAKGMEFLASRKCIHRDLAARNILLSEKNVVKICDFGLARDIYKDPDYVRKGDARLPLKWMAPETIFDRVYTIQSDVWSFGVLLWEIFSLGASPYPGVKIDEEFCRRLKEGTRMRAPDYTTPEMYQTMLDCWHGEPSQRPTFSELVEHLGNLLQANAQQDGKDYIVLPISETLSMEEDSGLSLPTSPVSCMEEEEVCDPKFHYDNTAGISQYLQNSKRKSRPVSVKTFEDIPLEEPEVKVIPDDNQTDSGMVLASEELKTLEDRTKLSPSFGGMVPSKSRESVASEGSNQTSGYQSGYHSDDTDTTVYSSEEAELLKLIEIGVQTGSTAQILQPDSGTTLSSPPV

Row | IC50 (PDGFRβ) | IC50 (KDR (VEGFR2)) | Compound
1 | ~7 nM | ~1000 nM | CCn1cc(NC(=O)Cc2ncc(Oc3ccnc4cc(OC)c(OC)cc34)cn2)cn1 [Example 1, N-(1-ethylpyrazol-4-yl)-2-[5-(6,7-dimethoxyquinolin-4-yloxy)pyrimidin-2-yl]acetamide]
2 | ~6 nM | ~700 nM | CCc1cc(NC(=O)Cc2ncc(Oc3ccnc4cc(OC)c(OC)cc34)cn2)n[nH]1 [N-(5-ethyl-1H-pyrazol-3-yl)-2-[5-(6,7-dimethoxyquinolin-4-yloxy)pyrimidin-2-yl]acetamide]
